Measured values: patent US8450317B2, “CXCR3 receptor antagonists” (Boehringer Ingelheim International GmbH, priority 2009, dated 2013)

target: CXCR3 (Macaca fascicularis, UniProt A0A2K5UV19); assay: functional cellular assay measuring calcium flux in CXCR3 transfected cells (block of CXCR3/IP-10 interaction); format: cell-based, Cyno; conditions: IP-10 induced intracellular calcium flux; Cyno-CHO cells stably expressing recombinant CXCR3 and G-alpha-16; IP-10 at EC80; read-out: IC50
Method: Compounds are assessed for the ability to block the interaction of CXCR3 and IP-10 in a functional cellular assay measuring calcium flux in CXCR3 transfected cells.
Cyno-CHO cells, stably expressing recombinant CXCR3 and G-alpha-16 are grown in F12 medium (Mediatech #45000-360) supplemented with 10% (V/V) FBS (Mediatech #35-01500), 1% Geneticin (Invitrogen #10131-027) and 0.2% Zeocin (Invitrogen #R250-05). The cells are spun down and re-suspended in growth media to a concentration of […]. 25 microL of cell suspension is added to each well of a BD-384-well TC treated plate, providing 12,000 cells/well. The plate is incubated at 37° C./5% CO2 overnight. On the day of the assay, the plates are removed, the media is flicked out and 25 microL of Ca-4 dye in assay buffer (HBSS, 10 mM HEPES ph 7.4), containing 2 mM probenacid is added to each well. The cell assay plates are then incubated at 37° C./5% CO2 for one hour.
Test compounds are dissolved in DMSO and diluted to 1.045 mM in DMSO. Just prior to assay, 2.75 microL of appropriately diluted test compound are added to each well of a 384 well plate containing 45 microL of HBSS buffer. After mixing, 5 microL of diluted compound are added to each well of the cell assay plate for a final assay concentration of 10 microM. The plate is incubated at room temperature for 15 min. 10 microL of IP-10 stock solution in HBSS (4× EC80 concentration) are added to each well of the cell assay plate except those cells reserved as blank wells containing buffer only. Intracellular calcium flux is recorded on the HAMAMTSU FDSS6000, using excitation at 480 nm and emission at 540 nm. Data are analyzed using Activity Base software.
In general, the preferred potency range (IC50) of compounds in the above assay is between 1 nM to 3 μM, and the most preferred potency range is 1 nM to 200 nM.

CXCR3, sequence (A0A2K5UV19 entry or part of it): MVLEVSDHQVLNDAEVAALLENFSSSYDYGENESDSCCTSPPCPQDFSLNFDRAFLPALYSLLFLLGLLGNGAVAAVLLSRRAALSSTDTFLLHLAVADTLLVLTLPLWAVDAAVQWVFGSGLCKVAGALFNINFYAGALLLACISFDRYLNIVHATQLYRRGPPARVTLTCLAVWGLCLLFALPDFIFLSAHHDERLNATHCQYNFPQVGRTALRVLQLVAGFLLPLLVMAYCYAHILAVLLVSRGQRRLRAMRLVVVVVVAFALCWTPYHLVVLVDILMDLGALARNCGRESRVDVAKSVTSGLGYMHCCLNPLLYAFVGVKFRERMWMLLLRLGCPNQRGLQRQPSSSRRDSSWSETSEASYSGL

| Structure (SMILES) | IC50 [nM] |
| --- | --- |
| CC1CN(c2ccccc2-c2cnc(N3CCC(S(C)(=O)=O)CC3)nc2)CCN1C(=O)CN1CCCCC1=O (centres unmarked) [1-{2-[2-methyl-4-(2-{2-[4-(methylsulfonyl)piperidin-1-yl]pyrimidin-5-yl}phenyl)piperazin-1-yl]-2-oxoethyl}piperidin-2-one] | 34 |
| COc1cc(NC(=O)c2cc(F)ccc2N2CCN(C(=O)Cn3cnc4cccnc43)[C@@H](C)C2)ccn1 [5-fluoro-2-[(3S)-4-(3H-imidazo[4,5-b]pyridin-3-ylacetyl)-3-methylpiperazin-1-yl]-N-(2-methoxypyridin-4-yl)benzamide] | 11 |
| COc1cc(NC(=O)c2cc(F)ccc2N2CCN(C(=O)CN3Cc4ccccc4C3=O)[C@@H](C)C2)ccn1 [5-fluoro-N-(2-methoxypyridin-4-yl)-2-{(3S)-3-methyl-4-[(1-oxo-1,3-dihydro-2H-isoindol-2-yl)acetyl]piperazin-1-yl}benzamide] | 13 |
| COc1ncc(-c2ccccc2N2CCN(C(=O)Cn3nc(C)cc3C)CC2)cn1 [2-(3,5-Dimethyl-pyrazol-1-yl)-1-{4-[2-(2-methoxy-pyrimidin-5-yl)-phenyl]-piperazin-1-yl}-ethanone] | 46 |
| CC1CN(c2ccc(F)cc2-c2cnc(N3CCC(S(C)(=O)=O)CC3)nc2)CCN1C(=O)CN1CCCCC1=O (centres unmarked) [1-{2-[4-(4-fluoro-2-{2-[4-(methylsulfonyl)piperidin-1-yl]pyrimidin-5-yl}phenyl)-2-methylpiperazin-1-yl]-2-oxoethyl}piperidin-2-one] | 14 |
| C[C@H]1CN(c2ccc(F)cc2C(=O)Nc2nc3c(s2)CN(C)CC3)CCN1C(=O)Cn1c(=O)[nH]c2ccccc21 [5-fluoro-2-{(3S)-3-methyl-4-[(2-oxo-2,3-dihydro-1H-benzimidazol-1-yl)acetyl]piperazin-1-yl}-N-(5-methyl-4,5,6,7-tetrahydro[1,3]thiazolo[5,4-c]pyridin-2-yl)benzamide] | 12 |
| CC1CN(c2ccccc2-c2cnc(N3CCC(O)CC3)nc2)CCN1C(=O)Cn1ccc2ccncc21 (centres unmarked) [1-(4-{2-[2-(4-hydroxypiperidin-1-yl)pyrimidin-5-yl]phenyl}-2-methylpiperazin-1-yl)-2-(1H-pyrrolo[2,3-c]pyridin-1-yl)ethanone] | 8 |
| COc1cc(NC(=O)c2cc(F)ccc2N2CCN(C(=O)Cn3ccc4ccncc43)[C@@H](C)C2)ccn1 [5-fluoro-N-(2-methoxypyridin-4-yl)-2-[(3S)-3-methyl-4-(1H-pyrrolo[2,3-c]pyridin-1-ylacetyl)piperazin-1-yl]benzamide] | 6 |
| COc1ncc(-c2ccccc2N2CCN(C(=O)Cn3ccc4ccncc43)CC2)cn1 [1-{4-[2-(2-Methoxy-pyrimidin-5-yl)-phenyl]-piperazin-1-yl}-2-pyrrolo[2,3-c]pyridin-1-yl-ethanone] | 9 |
| CSc1ncc(-c2cc(C#N)ccc2N2CCN(C(=O)Cn3nc(C)cc3C)CC2)cn1 [4-{4-[2-(3,5-Dimethyl-pyrazol-1-yl)-acetyl]-piperazin-1-yl}-3-(2-methylsulfanyl-pyrimidin-5-yl)-benzonitrile] | 36 |
| COc1cc(NC(=O)c2cc(F)ccc2N2CCN(C(=O)Cn3ccc4cccnc43)[C@@H](C)C2)ccn1 [5-fluoro-N-(2-methoxypyridin-4-yl)-2-[(3S)-3-methyl-4-(1H-pyrrolo[2,3-b]pyridin-1-ylacetyl)piperazin-1-yl]benzamide] | 18 |
| COc1ccc(-c2ccccc2N2CCN(C(=O)Cn3nc(C)cc3C)CC2)cn1 [2-(3,5-Dimethyl-pyrazol-1-yl)-1-{4-[2-(6-methoxy-pyridin-3-yl)-phenyl]-piperazin-1-yl}-ethanone] | 58 |
| COc1cc(NC(=O)c2cc(F)ccc2N2CCN(C(=O)CN3CCCCC3=O)[C@@H](C)C2)ccn1 [5-fluoro-N-(2-methoxypyridin-4-yl)-2-{(3S)-3-methyl-4-[(2-oxopiperidin-1-yl)acetyl]piperazin-1-yl}benzamide] | 8 |
| COc1ncc(-c2ccccc2N2CCN(C(=O)Cn3nc(C)c(Cl)c3C)CC2)cn1 [2-(4-Chloro-3,5-dimethyl-pyrazol-1-yl)-1-{4-[2-(2-methoxy-pyrimidin-5-yl)-phenyl]-piperazin-1-yl}-ethanone] | 10 |
| Cc1cc(C)n(CC(=O)N2CCN(c3ccccc3-c3cnc(N4CCN(C)CC4)nc3)CC2)n1 [2-(3,5-Dimethyl-pyrazol-1-yl)-1-(4-{2-[2-(4-methyl-piperazin-1-yl)-pyrimidin-5-yl]-phenyl}-piperazin-1-yl)-ethanone] | 40 |
| C[C@H]1CN(c2ccc(F)cc2C(=O)Nc2nc3c(s2)CN(C)CC3)CCN1C(=O)CN1CCCCC1=O [5-fluoro-2-{(3S)-3-methyl-4-[(2-oxopiperidin-1-yl)acetyl]piperazin-1-yl}-N-(5-methyl-4,5,6,7-tetrahydro[1,3]thiazolo[5,4-c]pyridin-2-yl)benzamide] | 17 |
| Cc1ocnc1C(=O)N(C)CC(=O)N1CCN(c2ccc(F)cc2C(=O)Nc2nc3c(s2)CN(C)CC3)C[C@H]1C [N-{2-[(2R)-4-{4-fluoro-2-[(5-methyl-4,5,6,7-tetrahydro[1,3]thiazolo[5,4-c]pyridin-2-yl)carbamoyl]phenyl}-2-methylpiperazin-1-yl]-2-oxoethyl}-N,5-dimethyl-1,3-oxazole-4-carboxamide] | 35 |
| Cc1cc(C)n(CC(=O)N2CCN(c3ccccc3-c3cnc(N4CC[C@@H](N(C)C)C4)nc3)CC2)n1 [1-(4-{2-[2-((R)-3-Dimethylamino-pyrrolidin-1-yl)-pyrimidin-5-yl]-phenyl}-piperazin-1-yl)-2-(3,5-dimethyl-pyrazol-1-yl)-ethanone] | 4 |
| C[C@@H]1CN(c2ccc(F)cc2C(=O)Nc2nc3c(s2)CN(C)CC3)CCN1C(=O)Cn1c(=O)[nH]c2ccccc21 [5-fluoro-2-{(3R)-3-methyl-4-[(2-oxo-2,3-dihydro-1H-benzimidazol-1-yl)acetyl]piperazin-1-yl}-N-(5-methyl-4,5,6,7-tetrahydro[1,3]thiazolo[5,4-c]pyridin-2-yl)benzamide] | 18 |

Results, then the compound that gave them:

| IC50 [nM] | Structure (SMILES) |
| --- | --- |
| 53 | COc1ncc(-c2cc(F)ccc2N2CCN(C(=O)Cn3cnc4cccnc43)CC2)cn1 [1-{4-[4-fluoro-2-(2-methoxypyrimidin-5-yl)phenyl]piperazin-1-yl}-2-(3H-imidazo[4,5-b]pyridin-3-yl)ethanone] |
| 24 | CS(=O)(=O)c1ncc(-c2cc(Cl)ccc2N2CCN(C(=O)Cn3ccc4cccnc43)CC2)cn1 [1-{4-[4-Chloro-2-(2-methanesulfonyl-pyrimidin-5-yl)-phenyl]-piperazin-1-yl}-2-pyrrolo[2,3-b]pyridin-1-yl-ethanone] |
| 5 | N#Cc1ccc(-c2ccccc2N2CCN(C(=O)Cn3ccc4cccnc43)CC2)cn1 [5-{2-[4-(2-Pyrrolo[2,3-b]pyridin-1-yl-acetyl)-piperazin-1-yl]-phenyl}-pyridine-2-carbonitrile] |
| 4 | CSc1ncc(-c2cc(C#N)ccc2N2CCN(C(=O)Cn3ccc4cccnc43)CC2)cn1 [3-(2-Methylsulfanyl-pyrimidin-5-yl)-4-[4-(2-pyrrolo[2,3-b]pyridin-1-yl-acetyl)-piperazin-1-yl]-benzonitrile] |
| 249 | CS(=O)(=O)c1ncc(-c2cc(F)ccc2N2CCN(C(=O)CN3Cc4ccccc4C3=O)CC2)cn1 [2-[2-(4-{4-fluoro-2-[2-(methylsulfonyl)pyrimidin-5-yl]phenyl}piperazin-1-yl)-2-oxoethyl]-2,3-dihydro-1H-isoindol-1-one] |
| 5 | CNc1ncc(-c2cc(C(F)(F)F)ccc2N2CCN(C(=O)Cn3ccc4cccnc43)CC2)cn1 [1-{4-[2-(2-Methylamino-pyrimidin-5-yl)-4-trifluoromethyl-phenyl]-piperazin-1-yl}-2-pyrrolo[2,3-b]pyridin-1-yl-ethanone] |
| 115 | CS(=O)(=O)c1ncc(-c2ccccc2N2CCN(C(=O)Cn3ccc4cccnc43)CC2)cn1 [1-{4-[2-(2-Methanesulfonyl-pyrimidin-5-yl)-phenyl]-piperazin-1-yl}-2-pyrrolo[2,3-b]pyridin-1-yl-ethanone] |
| 9 | CSc1ncc(-c2cc(C(F)(F)F)ccc2N2CCN(C(=O)Cn3ccc4cccnc43)CC2)cn1 [1-{4-[2-(2-Methylsulfanyl-pyrimidin-5-yl)-4-trifluoromethyl-phenyl]-piperazin-1-yl}-2-pyrrolo[2,3-b]pyridin-1-yl-ethanone] |
| 8 | CS(=O)(=O)C1CCN(c2ncc(-c3cc(F)ccc3N3CCN(C(=O)Cn4ccc5ccncc54)CC3)cn2)CC1 [1-[4-(4-fluoro-2-{2-[4-(methylsulfonyl)piperidin-1-yl]pyrimidin-5-yl}phenyl)piperazin-1-yl]-2-(1H-pyrrolo[2,3-c]pyridin-1-yl)ethanone] |
| 24 | COc1cc(-c2ccccc2N2CCN(C(=O)Cn3ccc4cccnc43)CC2)ccn1 [1-{4-[2-(2-Methoxy-pyridin-4-yl)-phenyl]-piperazin-1-yl}-2-pyrrolo[2,3-b]pyridin-1-yl-ethanone] |
